The values that follow come from US12280138B2, “Dedifferentiated cell extract of Bletilla and method for whitening, anti-oxidation and anti-wrinkling applying the same, and cosmetic comprising the same” (CHLITINA INTELLIGENCE LIMITED, priority 2021, dated 2025).

The structures appear in SMILES notation.

One assay deals with zebrafish embryos. Briefly: Whitening efficacy in zebrafish experiment (melanin plaques). Type of assay: in vivo. Conditions: 10 mM (about 1421 μg/ml). The method, then:
The wild-type zebrafish were stimulated to spawn, and the eggs spawned within one hour were collected. Upon 9 hours after fertilization, the embryos were screened by microscope to confirm the developmental state after fertilization. Each group had 12 fish embryos. The E3 culture medium, which was the zebrafish embryo culture medium, served as the control group. The positive control group was added with kojic acid (Kojic acid). Each experimental group was added with Example 1, Comparative example 1 and Comparative example 2, respectively. As zebrafish embryos produced melanin within 24 hours after fertilization, the treatment finished before the production of melanin, and the melanin production state in the hatched fish was observed upon 72 hours after fertilization. First, the fish was anesthetized and placed on a flat surface. The photo was taken from a top view, and the melanin plaques were analyze by the software of ImageJ. The intensity of the melanin plaque in the control group served as the standard, that is, the melanin amount thereof was 100%. The relative melanin amounts of the rest of the groups were calculated.

For another assay, the system named is melanosis. The following applies: 1% kojic acid applied to male and female subjects; cited from earlier work.

Regarding `O=c1cc(CO)occ1O` [kojic acid], the “Inhibition rate of melanin production” value with zebrafish embryos is “about 55%”. In addition, the melanosis result in the assay with melanosis is recorded as “significantly inhibited”.
